Test results as given in patent US11389445B2, “Pentafluorosulfanyl-substituted amide derivatives, preparation methods thereof and medical uses thereof” (Beijing Innocare Pharma Tech Co., Ltd., priority 2018, dated 2022).

Tests used:
[1] = biological target: indoleamine 2,3-dioxygenase (IDO) in Hela cells induced by IFN-γ (Homo sapiens (Human), UniProt P14902); test: IDO Cellular Activity Inhibition Assay (Ehrlich method); assay type: cell-based; settings: 24 hours, OD490
Protocol: IDO Cellular Activity Inhibition Assay
The effect of the compounds of the present invention on the activity of indoleamine 2,3-dioxygenase (IDO) in Hela cells induced by IFN-γ was evaluated by the Ehrlich method.
The experimental principle is summarized as follows: IDO expression is low in Hela cells under no induction, but a certain concentration of IFN-γ can induces Hela cells to express IDO which catalyzes the conversion of tryptophan to N-formyl kynurenine, which in turn is hydrolyzed by trichloroacetic acid to give kynurenine. Kynurenine then reacts with the Ehrlich reagent to give a color enabling detection of the IDO activity. The absorbance at 490 nm (OD490) is directly proportional to the IDO activity.
The test compound was dissolved in DMSO (Sigma, Cat. No. D5879) and diluted to 5 mM, then serially diluted 3-fold with DMSO to a minimum concentration of 2.29 μM, and each concentration point was further diluted 50-fold with FBS-free DMEM medium (ThermoFisher, Cat. No. 11995073). If a compound's IC50 value was very low, the initial concentration of the compound was lowered.
Hela cells (ATCC, Cat. No. CCL-2) were cultured in DMEM complete medium containing 10% FBS (GBICO, Cat. No. 10099-141) and 100 U/mL streptomycin mixture (ThermoFisher, Cat. No. 15140122). When covering the culture vessel 80-90%, the cells were digested with 0.25% trypsin (containing EDTA) (ThermoFisher, Cat. No. 25200056) and planted in 96-well plates (Corning, Cat. No. 3599) by 20000 cells per well (80 μL of DMEM medium). The plates were then incubated in a 37° C., 5% CO2 incubator overnight (18-20 hours).
After overnight, 10 μL of DMEM-diluted compound and 10 μL of 500 ng/mL of IFN-γ were added to each well, and gently mixed and the 96-well plates were placed in a 37° C., 5% CO2 incubator for further culturing. After 24 hours, they were removed and centrifuged at room temperature under 2000×g for 5 min, and then the supernatants were transferred to reaction plates (Sigma, Cat. No. CLS3695). One-twentieth of trichloroacetic acid (Sigma, Cat. No. T9159) was added and incubated at 60° C. After 30 min, the reaction plates were centrifuged at room temperature under 2000×g for 5 min. The supernatants were transferred to clean reaction plates, an equal volume of the Ehrlich reagent was added, mixed, and incubated at room temperature. After 15 min, OD490 of each well was measured.
In this experiment, OD490 without IFN-γ but with DMEM medium replacement was referred as OD490100% inhibition. OD490 with IFN-γ and 0.2% DMSO was referred as OD4900% inhibition. The percentage of inhibition on the IDO1 activity in Hela cells by a compound was calculated using the following formula: Inhibition %=100−100*(OD490compound−OD490100% inhibition)/(OD4900% inhibition−OD490100% inhibition)
Where Y is the percentage of inhibition, Bottom is the bottom platform value of the S-curve, Top is the top platform value of the S-curve, X is the logarithm of the concentration of the test compound, and slope factor is the slope coefficient of the curve.

plasma IDO1 = plasma IDO1 (Mus musculus (Mouse), UniProt P28776); settings: single dose, nude mice; cited from earlier work
CT26 tumors = settings: repeated doses; cited from earlier work

indoleamine 2,3-dioxygenase (IDO) in Hela cells induced by IFN-γ, sequence (P14902 whole entry): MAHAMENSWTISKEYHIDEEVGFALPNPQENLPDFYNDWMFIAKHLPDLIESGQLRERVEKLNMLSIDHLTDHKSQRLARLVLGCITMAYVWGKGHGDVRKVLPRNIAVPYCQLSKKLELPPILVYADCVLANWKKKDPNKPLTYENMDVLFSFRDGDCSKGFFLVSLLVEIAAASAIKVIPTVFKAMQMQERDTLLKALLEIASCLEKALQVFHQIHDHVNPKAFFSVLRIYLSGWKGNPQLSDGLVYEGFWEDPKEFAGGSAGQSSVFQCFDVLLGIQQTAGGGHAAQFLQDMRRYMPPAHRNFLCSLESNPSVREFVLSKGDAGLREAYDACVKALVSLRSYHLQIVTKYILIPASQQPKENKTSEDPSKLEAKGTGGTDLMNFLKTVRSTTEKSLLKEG
plasma IDO1, sequence (P28776 whole entry): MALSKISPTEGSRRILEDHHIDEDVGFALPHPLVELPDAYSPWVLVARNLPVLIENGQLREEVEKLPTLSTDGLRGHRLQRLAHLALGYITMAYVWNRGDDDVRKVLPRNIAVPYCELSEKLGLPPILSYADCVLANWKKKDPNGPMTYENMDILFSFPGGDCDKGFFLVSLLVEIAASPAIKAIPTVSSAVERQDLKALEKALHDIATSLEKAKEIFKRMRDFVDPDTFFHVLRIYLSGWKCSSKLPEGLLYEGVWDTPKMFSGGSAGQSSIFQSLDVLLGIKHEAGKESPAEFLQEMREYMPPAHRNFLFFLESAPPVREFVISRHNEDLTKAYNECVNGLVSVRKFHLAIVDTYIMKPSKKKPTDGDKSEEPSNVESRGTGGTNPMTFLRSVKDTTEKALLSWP

| Compound | IC50 [1] [µM] | inhibition of the activity of plasma IDO1 (plasma IDO1) | expansion of CT26 tumors (CT26 tumors) |
| --- | --- | --- | --- |
| C[C@@H](C(=O)Nc1ccc(S(F)(F)(F)(F)F)cc1)[C@H]1CC[C@H](c2ccnc3ccc(F)cc32)CC1 [Compound 2, (R)-2-((1r,4R)-4-(6-fluoroquinolin-4-yl)cyclohexyl)-N-(4-(pentafluoro-λ^6-sulfanyl)phenyl)propanamide] | 0.2 to 1 | – | – |
| C[C@@H](C(=O)Nc1cccc(S(F)(F)(F)(F)F)c1)[C@H]1CC[C@@H](c2ccnc3ccc(F)cc32)CC1 [Compound 8, (R)-2-((1s,4S)-4-(6-fluoroquinolin-4-yl)cyclohexyl)-N-(3-(pentafluoro-λ^6-sulfanyl)phenyl)propanamide] | 0.2 to 1 | – | – |
| NS(=O)(=O)NCCNc1nonc1C(=NO)Nc1ccc(F)c(Br)c1 [INCB-024360] | – | effectively inhibit the activity of plasma IDO1 in nude mice at the same level as that in IDO-deficient mice | prevented the expansion of CT26 tumors |

The next lines start with results.

| IC50 [1] [µM] | Compound | inhibition of the activity of plasma IDO1 (plasma IDO1) | expansion of CT26 tumors (CT26 tumors) |
| --- | --- | --- | --- |
| < 0.05 | C[C@@H](C(=O)Nc1ccc(S(F)(F)(F)(F)F)cc1)[C@H]1CC[C@@H](c2ccnc3ccc(F)cc32)CC1 [Compound 1, (R)-2-((1s,4S)-4-(6-fluoroquinolin-4-yl)cyclohexyl)-N-(4-(pentafluoro-λ^6-sulfanyl)phenyl)propanamide] | – | – |
| < 0.05 | Cc1cc([C@H]2CC[C@@H]([C@@H](C)C(=O)Nc3ccc(S(F)(F)(F)(F)F)cc3)CC2)ccn1 [Compound 3, (R)-2-((1s,4S)-4-(2-methylpyridin-4-yl)cyclohexyl)-N-(4-(pentafluoro-λ^6-sulfanyl)phenyl)propanamide] | – | – |
| 0.05 to 0.2 | C[C@@H](C(=O)Nc1ccc(S(F)(F)(F)(F)F)cc1)C1CCC(c2ccnc3ccnn23)CC1 (stereo partly drawn) [Compound 4, (R)-N-(4-(pentafluoro-λ^6-sulfanyl)phenyl)-2-(4-(pyrazolo[1,5-a]pyrimidin-7-yl)cyclohexyl)propanamide] | – | – |
| < 0.05 | O=C(CC1(O)CCC(c2ccnc3ccc(F)cc23)CC1)Nc1ccc(S(F)(F)(F)(F)F)cc1 (stereo not drawn) [Compound 5, 2-(4-(6-fluoroquinolin-4-yl)-1-hydroxycyclohexyl)-N-(4-(pentafluoro-λ^6-sulfanyl)phenyl)acetamide] | – | – |
| < 0.05 | CC(NC(=O)c1ccc(S(F)(F)(F)(F)F)cc1)[C@H]1CC[C@@H](c2ccnc3ccc(F)cc32)CC1 (stereo partly drawn) [Compound 9, N-(1-((1s,4s)-4-(6-fluoroquinolin-4-yl)cyclohexyl)ethyl)-4-(pentafluoro-λ^6-sulfanyl)benzamide] | – | – |
